Reference: PubChem BioAssay AID1645862 (Buhrlage Lab, Dana-Farber Cancer Institute and Novartis …, 2021)
pIC50: −log10 of the molar value. Calls of active or inactive are those of the source. The rule behind the calls is not given here.

Biological target: Ubiquitin carboxyl-terminal hydrolase 8 (Homo sapiens) (UniProt P40818)
Test: Ubiquitin-specific protease 8 inhibitors, concentration-effect, biochemical, validation of initial actives (AID 1645862);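 note: potency reflects inhibition of USP8 cleavage of a ubiquitin rhodamine substrate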
Conditions: recombinant USP8 deubiquitinase activity assay

Chain of Ubiquitin carboxyl-terminal hydrolase 8 (Homo sapiens) (P40818 whole entry, looked up): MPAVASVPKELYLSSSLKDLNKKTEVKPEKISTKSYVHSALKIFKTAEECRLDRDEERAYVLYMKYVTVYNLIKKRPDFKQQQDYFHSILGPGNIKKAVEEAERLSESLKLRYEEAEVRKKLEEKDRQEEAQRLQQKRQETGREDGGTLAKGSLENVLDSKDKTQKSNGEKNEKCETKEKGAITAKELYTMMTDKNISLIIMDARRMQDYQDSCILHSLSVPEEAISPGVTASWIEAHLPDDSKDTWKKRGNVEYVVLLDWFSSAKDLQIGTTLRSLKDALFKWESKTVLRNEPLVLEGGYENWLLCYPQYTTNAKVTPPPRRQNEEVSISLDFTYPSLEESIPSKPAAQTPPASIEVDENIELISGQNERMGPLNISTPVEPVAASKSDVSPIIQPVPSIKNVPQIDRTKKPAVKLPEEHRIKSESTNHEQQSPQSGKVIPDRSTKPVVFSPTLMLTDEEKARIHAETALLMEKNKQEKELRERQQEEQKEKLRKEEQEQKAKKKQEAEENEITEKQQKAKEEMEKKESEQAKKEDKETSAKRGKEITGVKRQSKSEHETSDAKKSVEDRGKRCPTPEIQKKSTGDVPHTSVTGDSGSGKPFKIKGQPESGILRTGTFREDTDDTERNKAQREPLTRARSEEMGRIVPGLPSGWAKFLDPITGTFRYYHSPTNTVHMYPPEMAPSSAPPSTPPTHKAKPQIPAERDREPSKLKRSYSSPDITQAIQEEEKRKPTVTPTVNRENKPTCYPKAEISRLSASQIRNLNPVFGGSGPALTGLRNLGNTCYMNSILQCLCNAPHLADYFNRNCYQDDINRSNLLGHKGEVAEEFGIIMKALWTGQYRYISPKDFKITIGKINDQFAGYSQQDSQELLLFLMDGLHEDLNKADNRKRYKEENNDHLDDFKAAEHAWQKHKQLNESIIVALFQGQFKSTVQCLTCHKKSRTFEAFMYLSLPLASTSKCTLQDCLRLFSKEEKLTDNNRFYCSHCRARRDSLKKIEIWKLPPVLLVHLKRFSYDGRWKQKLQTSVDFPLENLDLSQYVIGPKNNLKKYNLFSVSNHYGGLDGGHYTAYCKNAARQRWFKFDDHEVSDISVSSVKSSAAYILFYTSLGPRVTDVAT

Structure (SMILES)	IC50	pIC50
Cc1ccc(CNC(=O)c2cccc(N3C(=O)N4CCc5c([nH]c6ccccc56)[C@@]4(C)C3=O)c2)cc1	> 40 µM (inactive)	–
COc1cccc(C(=O)Nc2nc(-c3nnn(-c4ccc(C)c(F)c4)c3C)ns2)c1	> 40 µM (inactive)	–
O=C(NCc1ccc(Br)cc1)c1cc(-c2cccnc2)n[nH]1	> 40 µM (inactive)	–
Cc1ccccc1NC(=O)CSC1=NC2(CCCCC2)Nc2ccccc21	> 40 µM (inactive)	–
O=C(CCn1c(=O)c2ccccc2n(CC(=O)OCc2ccccc2)c1=O)NCc1ccc2c(c1)OCO2	> 40 µM (inactive)	–
CC(=O)[C@H]1c2c(c(O)c3c(O)cccc3c2-c2c3c(c(O)c4c(O)cccc24)C(=O)C[C@](C)(O)[C@H]3C(C)=O)C(=O)C[C@]1(C)O	–	4.61
CCOc1ccc(-c2nc(SCC(=O)Nc3cccc(C)c3)n3[nH]c(=O)cc3n2)cc1	> 40 µM (inactive)	–
Cc1ccc(NCc2cc3c(-c4cccc(F)c4)nn(-c4ccccc4)c3[nH]c2=O)cc1C	> 40 µM (inactive)	–
O=C(Cc1ccc(-n2c(=O)c3ccccc3n(Cc3cccc([N+](=O)[O-])c3)c2=O)cc1)NC1CCCC1	> 40 µM (inactive)	–
CCc1nnc(C(=O)Nc2ccc(C(=O)NCc3ccc(OC(C)C)cc3)cc2)s1	> 40 µM (inactive)	–
O=C(CCc1nnc2n(Cc3ccccc3Cl)c(=O)c3ccccc3n12)NCc1ccccc1	> 40 µM (inactive)	–
Cc1c(C#N)c2ccccc2n1CC(=O)NCc1ccc2c(c1)OCO2	> 40 µM (inactive)	–
O=C(Cn1c(=O)n(CCC(=O)NC2CCCC2)c(=O)c2ccccc21)NCc1ccccc1Cl	> 40 µM (inactive)	–
O=C(Nc1ccccc1)[C@@H]1[C@@H]2C(=O)N(c3ccc([N+](=O)[O-])cc3)C(=O)[C@@H]2[C@H]2c3ccccc3C=CN12	–	4.47
N#Cc1ccc(NC(=O)Nc2cccn(Cc3ccccc3Br)c2=O)cc1	> 40 µM (inactive)	–
COc1ccc(/C=C/C(=O)Nc2ccc3nc(N4CCN(c5ncccn5)CC4)cc(C)c3c2)cc1	> 40 µM (inactive)	–
COc1cccc(-c2cc(C(=O)Nc3cc(C)n(Cc4ccc(Cl)cc4)n3)no2)c1	> 40 µM (inactive)	–
Cc1cccc2nc(CSc3nc4ccc([N+](=O)[O-])cc4[nH]3)cn12	> 40 µM (inactive)	–
Cc1occ2c1C(=O)c1c(O)ccc(O)c1C2	–	6.18
COCCCNC(=O)c1ccc(Cn2c(=O)c3ccccc3n(CC(=O)Nc3ccc(OC)cc3)c2=O)cc1	> 40 µM (inactive)	–
O=C(OC1CSc2nc3ccccc3n2C1)c1ccc([N+](=O)[O-])o1 (centres undefined)	–	4.67
O=C(CSc1nnc2c3ccccc3nc(-c3ccco3)n12)N1CCCc2ccccc21	> 40 µM (inactive)	–
COc1ccc(-c2cc3nc([C@H](C)NC(=O)CC4CCCC4)nn3cn2)cc1	> 40 µM (inactive)	–

Structure (SMILES)	IC50	pIC50
Cc1ccc(S(=O)(=O)Nc2ccccc2C(=O)Nc2nc3ccc(Br)cc3s2)cc1	–	4.72
CC1Oc2cc3c(-c4c(O)cc(O)c5c(O)c6c(cc45)OC(C)C(C)C6=O)c(O)cc(O)c3c(O)c2C(=O)C1C (centres undefined)	> 40 µM (inactive)	–
O=C(Nc1cc(F)c2nc(N3CCCC3)ccc2c1)c1ccco1	> 40 µM (inactive)	–
COC(=O)c1ccc(Nc2cc(C)nc3cc(C(F)(F)F)ccc23)cc1	> 40 µM (inactive)	–
COc1ccc(S(=O)(=O)N2CCc3ccccc32)cc1C(=O)Nc1ccc2c(c1)NC(=O)C(C)O2 (centres undefined)	> 40 µM (inactive)	–
O=C(/C=C/c1cccc([N+](=O)[O-])c1)N1CCc2ccccc21	> 40 µM (inactive)	–
Cn1c(=O)c2ncnnc2n(C)c1=O	–	6.14
O=C(NCc1ccc2c(c1)OCO2)c1cn(-c2cccc(Cl)c2)nn1	> 40 µM (inactive)	–
O=C(CCc1nnc2n(Cc3ccccc3)c(=O)c3ccccc3n12)NCc1ccc2c(c1)OCO2	> 40 µM (inactive)	–
CCOc1ccc2c(c1)c(=O)c(C(=O)c1ccccc1)cn2CC(=O)Nc1ccccc1	> 40 µM (inactive)	–
CCOc1cc2c(cc1OCC)C(c1cc3c(cc1Br)OCO3)NCC2 (centres undefined)	> 40 µM (inactive)	–
COCCCn1c(C(=O)NCc2ccccc2)cc2c(=O)n3ccccc3nc21	> 40 µM (inactive)	–
COC(=O)c1ccccc1NC(=O)Cn1c(=O)n(CCCC(=O)NCc2ccco2)c(=O)c2ccccc21	> 40 µM (inactive)	–
Cn1cc(NC(=O)Nc2cccc(C(F)(F)F)c2)c2ccccc2c1=O	–	5.03
CC(C)=CCC[C@H](C(=O)O)[C@@H]1CC[C@]2(C)C3=C(CC[C@@]12C)[C@@]1(C)CCC(=O)C(C)(C)C1CC3 (some centres undefined)	> 40 µM (inactive)	–
CNC(=O)c1c2n(c3ncccc13)CCN(S(=O)(=O)c1ccc(-c3ccccc3)cc1)C2	> 40 µM (inactive)	–
Cc1ccccc1-n1ccc2nc(N3CCCC3)ncc2c1=O	> 40 µM (inactive)	–
O=C(COc1ccc(N2CC(C(=O)NCc3ccc4c(c3)OCO4)CC2=O)cc1)Nc1ccc(F)cc1 (centres undefined)	> 40 µM (inactive)	–
O=C(c1cc(S(=O)(=O)Nc2ccc(Cl)cc2)ccc1Cl)N1CCCc2ccccc21	> 40 µM (inactive)	–
Cc1ccc(N2CC(c3nnc(NC(=O)CCc4ccccc4)s3)CC2=O)cc1 (centres undefined)	> 40 µM (inactive)	–
COc1ccc(NC(=O)Cn2cc(C(=O)c3ccc(Cl)cc3)c(=O)c3cc(F)ccc32)cc1	> 40 µM (inactive)	–
Cc1ccc(NC(=O)Nc2ccc(C)n(CC(=O)Nc3ccc(C)cc3C)c2=O)cc1	–	4.59
Cc1ccccc1-c1nnc2sc(COc3ccc(Cl)cc3)nn12	> 40 µM (inactive)	–

Structure (SMILES)	IC50	pIC50
CSc1cccc(NC(=O)COc2cccc3ccccc23)c1	> 40 µM (inactive)	–
CCc1nc(SCC(=O)Nc2ccc(Cl)c(Cl)c2)c2oc3ccccc3c2n1	> 40 µM (inactive)	–
Cc1cc(C(F)(F)F)n2nc(C3CCN(C(=O)c4cnn(C)c4C)C3)cc2n1 (centres undefined)	–	4.62
COc1cc(C)cc2c1C(=O)c1c(cc(O)c(Cl)c1O)C2=O	–	5.48
COc1ccc(NC(=O)Cn2c(=O)n(CCCC(=O)NC3CCCC3)c(=O)c3cc(Cl)ccc32)c(OC)c1	> 40 µM (inactive)	–
COc1ccccc1CNC(=O)C1c2ccccc2C(=O)N1Cc1ccccc1C (centres undefined)	> 40 µM (inactive)	–
O=C(c1[nH]nc2c1COc1ccccc1-2)N1CCN(c2ccccn2)CC1	> 40 µM (inactive)	–
Cc1cccc(NC(=O)CSc2nnc(-c3n[nH]c4c3CCC4)n2N)c1C	> 40 µM (inactive)	–
COc1cccc2c1NC(=O)C21CCN(C(=O)Nc2cccc3ccccc23)CC1	> 40 µM (inactive)	–
CCc1cc(=O)oc2c(C)c(OCC(=O)NCc3ccccn3)ccc12	> 40 µM (inactive)	–
CC[C@@H](C(=O)[C@@H](C)[C@@H](O)[C@H](C)CCc1ccc(C)c(O)c1C(=O)O)[C@@H]1O[C@](CC)([C@H]2CC[C@](O)(CC)[C@H](C)O2)C[C@@H]1C	> 40 µM (inactive)	–
O=C(COC(=O)c1ccc(NS(=O)(=O)c2ccc(F)c(F)c2)cc1)Nc1ccc(OCc2ccccc2)cc1	> 40 µM (inactive)	–
Cc1c(NC(=O)/C=C/c2cccc(Cl)c2Cl)cccc1-n1cnnn1	> 40 µM (inactive)	–
Cc1ccc(NC(=O)Cc2nnc3c(-c4nc(C5CC5)no4)cccn23)c(C)c1	> 40 µM (inactive)	–
Cc1ccccc1NC(=O)Nc1cccc(-c2nnc(-c3ccccc3)o2)c1	> 40 µM (inactive)	–
C[C@H](NC(=O)Cc1ccccc1F)c1nc2cc(-c3ccccc3F)ncn2n1	> 40 µM (inactive)	–
CCCCN1CC(C(=O)Nc2ccc(C(=O)Nc3ccc(C(N)=O)cc3)cc2)CC1=O (centres undefined)	> 40 µM (inactive)	–
CC(C)=CCc1c2c(c3occ(-c4ccc(O)c(O)c4)c(=O)c3c1O)C=CC(C)(C)O2	–	4.80
O=C(c1cnccn1)N1CC[C@@H]2CNS(=O)(=O)[C@@H]2CC1	> 40 µM (inactive)	–
O=C1CSC(c2ccc(F)cc2)c2c(n(C3CCCCCC3)[nH]c2=O)N1 (centres undefined)	–	4.50
COc1cc(=O)c(C(=O)Nc2ccc(C#N)cc2)nn1-c1cccc(F)c1	> 40 µM (inactive)	–
CCC(=O)N1c2ccccc2NC2=C(C(=O)CC(c3ccccc3OCc3ccccc3)C2)C1c1ccccc1 (centres undefined)	> 40 µM (inactive)	–
Nc1c(-c2nc(-c3ccccc3Cl)no2)nnn1-c1ccc(Cl)cc1	–	5.32

Structure (SMILES)	IC50	pIC50
Cc1cc(C(=O)Nc2cc([N+](=O)[O-])cc3oc(-c4ccccc4)cc23)on1	> 40 µM (inactive)	–
O=C(CN1CC=C(c2ccccc2)CC1)Nc1ccc(S(=O)(=O)N2CCOCC2)cc1	> 40 µM (inactive)	–
O=C(c1cccnc1)N1CCN(c2cc(-c3ccccc3)[nH]n2)CC1	> 40 µM (inactive)	–
COc1ccc(C(=O)Nc2ccccc2C(=O)NC(Cc2ccc(O)cc2)C(=O)NNC(=O)c2ccccc2Cl)cc1 (centres undefined)	> 40 µM (inactive)	–
O=C(NC(Cc1ccccc1)c1nc2ccccc2[nH]1)C1CC1 (centres undefined)	–	4.61
Cc1ccc(N2CC(C(=O)Nc3cccc(-c4noc(C)n4)c3)CC2=O)cc1 (centres undefined)	> 40 µM (inactive)	–
COCC(=O)N1CCC(n2c(C3CC3)nc3sc(C)c(C)c3c2=O)CC1	> 40 µM (inactive)	–
Cc1ccc(NC(=O)c2ccc3nn(CC(=O)Nc4ccc(C)cc4C)c(=O)n3c2)cc1	> 40 µM (inactive)	–
COc1cc(OC)cc(N2C(=O)N(CC(=O)c3ccc(Br)cc3)c3ccccc3S2(=O)=O)c1	> 40 µM (inactive)	–
Oc1cccc2c(-c3ccc(O)c4c(O)cccc34)ccc(O)c12	> 40 µM (inactive)	–
Cc1ccc(NC(=O)c2cc(-c3ccccn3)nc3c(Cl)cccc23)nc1	> 40 µM (inactive)	–
CCCCCCCCCCCC1=C(O)C(=O)C=C(O)C1=O	–	5.33
Cc1ccc(Cn2c(=O)c3ncccc3n(CC(=O)NCc3ccc(F)cc3)c2=O)cc1	> 40 µM (inactive)	–
Cn1c(=O)c2nc(-c3ccc(Cl)cc3)nnc2n(C)c1=O	–	6.13
C=C/C(C)=C/[C@@]1(C)SC(=O)C(C)=C1O	–	4.84
COc1cn(-c2ccc(F)cc2)nc1C(=O)Nc1ccc(Cl)cc1Cl	–	4.82
Cc1cccc(C(=O)OCC(=O)Nc2ccc3[nH]c(=O)[nH]c3c2)c1	> 40 µM (inactive)	–
CC(C)c1ccc(NC(=O)COC(=O)c2ccc(NS(=O)(=O)c3ccc4c(c3)OCCO4)cc2)cc1	> 40 µM (inactive)	–
Cc1ccccc1NC(=O)Cn1ccc2ccn(Cc3ccccc3)c2c1=O	> 40 µM (inactive)	–
O=C(c1ccco1)N1CCCC1c1nc(-c2ccccc2)n[nH]1 (centres undefined)	> 40 µM (inactive)	–
